# Data published in patent publication US20030026766A1 (priority 2000, published 2003).
# Molecular target: T1, glucocorticoid receptor (Homo sapiens, UniProt P04150)
# T1 sequence (P04150 1-777): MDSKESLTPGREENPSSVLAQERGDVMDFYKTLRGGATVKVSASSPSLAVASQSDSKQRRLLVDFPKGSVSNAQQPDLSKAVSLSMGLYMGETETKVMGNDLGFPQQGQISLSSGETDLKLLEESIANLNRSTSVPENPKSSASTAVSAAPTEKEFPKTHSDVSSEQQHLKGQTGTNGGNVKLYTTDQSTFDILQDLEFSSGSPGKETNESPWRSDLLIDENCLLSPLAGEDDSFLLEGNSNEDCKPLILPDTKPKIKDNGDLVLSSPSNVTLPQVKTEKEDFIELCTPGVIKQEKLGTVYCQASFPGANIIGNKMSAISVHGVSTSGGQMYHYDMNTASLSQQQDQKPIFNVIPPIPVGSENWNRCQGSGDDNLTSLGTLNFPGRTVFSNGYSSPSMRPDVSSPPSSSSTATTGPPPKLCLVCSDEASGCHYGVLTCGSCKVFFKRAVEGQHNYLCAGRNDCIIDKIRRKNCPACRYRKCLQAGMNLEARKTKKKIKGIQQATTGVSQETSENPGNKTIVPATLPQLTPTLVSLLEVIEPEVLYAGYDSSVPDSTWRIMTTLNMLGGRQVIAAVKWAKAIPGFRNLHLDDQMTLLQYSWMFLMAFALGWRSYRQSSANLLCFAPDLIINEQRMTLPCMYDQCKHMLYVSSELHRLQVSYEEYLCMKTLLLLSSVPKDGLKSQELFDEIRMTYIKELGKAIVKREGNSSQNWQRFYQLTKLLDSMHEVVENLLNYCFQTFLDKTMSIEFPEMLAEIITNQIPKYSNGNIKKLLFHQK
# Experiment: Western Blot analysis of glucocorticoid receptor translocation into the nucleus in U937 cells
# Settings: nuclear extract, GR band at approximately 94 kDa by densitometry, control = 100, proportional to increase in GR translocation into the nucleus
smiles,measurement,value
OCc1cc(C(O)CNCCCCCCOCCCCc2ccccc2)ccc1O (stereo not shown) [Salmeterol],% Change in Band Density,183 ± 12%
